Data on three molecules can be found in ChEMBL document CHEMBL3227973, “Synthesis and platelet aggregation inhibitory activity of 6-isobutyl-alpha-methyl-3-pyridineacetic acid” (1979).

In test [1] the test system is Rattus norvegicus. Put plainly: Ex vivo antiplatelet activity in Sprague-Dawley rat assessed as inhibition of collagen-induced platelet aggregation at 10 mg/kg, po after 1 hr. In kind it is functional.
Test [2] concerns Rattus norvegicus. In words: Ex vivo antiplatelet activity in Sprague-Dawley rat assessed as inhibition of collagen-induced platelet aggregation at 50 mg/kg, po after 1 hr. The class given is functional.
Test [3] concerns Rattus norvegicus. In words: Ex vivo antiplatelet activity in Sprague-Dawley rat assessed as inhibition of collagen-induced platelet aggregation at 40 mg/kg, po after 1 hr. In kind it is functional.
The species entered for test [4] is Mus musculus. In words: Ex vivo antiplatelet activity in mouse assessed as inhibition of collagen-induced platelet aggregation at equivalent dose of ibuprofen after 1 hr.

In general, inhibition in vivo refers to the percentage by which the read-out fell short of the control.

The source made the active and inactive calls. No cut-off for these calls is given here.

`CC(C)Cc1ccc(C(C)C(=O)O)cn1` (stereo not given): the inhibition in vivo at 10 mg/kg in test [1] stood at 33%. Also, in test [2], the inhibition in vivo at 50 mg/kg is 65%. With `CC(C)Cc1ccc(C(C)C(=O)O)cc1` (stereo not given) [IBUPROFEN], the inhibition in vivo at 10 mg/kg in test [1] was found to be 10%. In test [3], the inhibition in vivo at 40 mg/kg came to 88%. On to `CC(C)Cc1ccc(C(C)C(=O)O)c(Cl)n1` (stereo not given), for which the inhibition entry in test [4] was “inactive”.
